Data set [1] in a line: In vitro cytotoxicity MTT assay. Format: cell-based, human. Conditions: human, normal HUVEC cell line. Here is the method: (§1) The human umbilical vein endothelial cell line (HUVEC) was a gift from Prof. F Y Chen (Xiangya Hospital, Changsha, China). The cells were grown in DMEM (Hyclone, Logan, UT, USA) supplied with 10% fetal bovine serum (Hyclone, Logan, UT, USA) and 1% penicillin/streptomycin mixture. Furthermore, all the cells were cultured at a 37 ℃, 5% CO2 humidified incubator. The cytotoxicity activity of compounds PAL, PAL-RES and PAL-ORC for normal HUVEC cell line was assessed via the MTT assay. The cells were cultured at a density of 8000 cells/well in a 96 well plate. Five different concentrations (0, 0.1, 1, 10 and 100 μM) of compounds PAL, PAL-RES and PAL-ORC in DMSO were subsequently added to the wells then incubated under 5% CO2 at 37 °C for 48 h; 50 μL of MTT (2 mg/mL) was added to each well, and the cells were incubated for another 4 h. Next, the liquid in each well was removed, and DMSO (150 μL) was added. The absorbance (OD values) at 490 nm was measured by a microplate reader (Biotek, SYNERGY HTX, VT, USA). Each concentration was tested in triplicate.

The test system of another data set is HUVEC. As to the kind of experiment: In vitro cytotoxicity MTT assay. Format: cell-based, human. The conditions noted are these: normal HUVEC cell line, 48 h. Here is the method: as §1
A short description of data set [2]: Intrinsic dissolution rate (IDR) experiments. Format: physicochemical. The conditions noted are these: for Dissolution rate compared with PAL: hydrochloric acid solution pH 1.0; for Increase of dissolution rate compared with PAL: phosphate buffer pH 6.8. Here is the method:
In the IDR experiment, one side of the compact was sealed with melted wax, and the other side was not covered to contact with the solution. The temperature was set to 37 ℃, the paddle speed was 100 rpm, the samples were collected at the corresponding time points (phosphate buffer pH 6.8: 60, 120, 180, 240, 300, 360 min; acetic acid buffer pH 4.5: 1, 2, 3, 5, 7, 10 min; hydrochloric acid solution pH 1.0: […]) and supplemented with the same volume of culture base. Filtered the supernatant (0.22 μm) to remove undissolved particles. The PAL concentration was measured by an LC-20AD HPLC system (Shimadzu, Kyoto, Japan). At 40 °C, an Agilent ZORBAX Eclipse XDB-C18 column (250 mm × 4.6 mm, 5 μm, Agilent, Santa Clara, CA, USA) and a UV detector with a wavelength of 356 nm were used to separate the palbociclib. The mobile phase contained 0.1% acetic acid in methanol and water (80:20, v/v), the flow rate was 0.8 mL/min, and the isocratic elution was 10 min. The results were stated as the average of three replicated experiments.

A short description of data set [3]: Accelerated stability testing, analysed by PXRD. It is filed as physicochemical. Conditions: 40 °C/75% RH for 3 months. Here is the method:
For the physical stability studies, the powder samples of the cocrystals were exposed to accelerated condition (YSEI, China) with 40 °C/75% RH for three months; subsequently, the samples were analyzed by PXRD.

A short description of data set [4]: Powder dissolution (paddle method). Conditions: for Equilibrium dissolution: powder, 500 mL phosphate buffer pH 6.8, 37 °C, 50 rpm, 50 mg PAL equivalent. It is filed as physicochemical. Here is the method:
[…] PAL, PAL-RES, and PAL-ORC were ground and passed through a 200 mesh sieve. In total, 50 mg of PAL or a PAL equivalent amount of cocrystal were weighed for the powder dissolution experiment. At 5, 10, 15, 30, 45, 60, 90, 120, 180, 240, 300, 360, 480, 600, 720, 1080, 1440 min, taken out 1 mL of the dissolved sample and […] with an equal volume of fresh medium in order to maintain a constant dissolution system. The PAL concentration was measured using the same method as the IDR part. All the experiments were conducted in triplicate.

Data set [5] is described as follows: Stress testing (high temperature, high humidity, strong illumination), analysed by PXRD. Format: physicochemical. Conditions: high temperature (60 °C), high humidity (92.5% RH), strong illumination (4500 LX). Here is the method:
The cocrystals were subjected to a high temperature (60 °C), high humidity (92.5% RH), and strong illumination (4500 lx) condition respectively for stress testing experiments. The samples were analyzed by PXRD to detect possible solid-state transformation at 0, 5, 10 days.

Details of data set [6]: method as in doi:10.1021/acs.cgd.7b01281. The conditions noted are these: cited from earlier work.
The nature of data set [7]: In vivo pharmacokinetic experiments in rats. The conditions noted are these: SD rats, single oral dose equivalent to 5 mg/kg PAL, plasma PAL. The arrangement: species or system Sprague−Dawley rats. Here is the method: The PK profiles of PAL, PAL-RES and PAL-ORC were determined in adult male Sprague−Dawley rats (SD rats, 200–250 g), which were commercially obtained from Pizhou Oriental Breeding Co., Ltd. (Xuzhou, China). All the experiments were approved by the Ethics and Experimental Animal Committee of Jiangsu Ocean University (Project identification code: 202100021). The rats were housed in standard cages with constant temperature and humidity, and a 12 h light−dark cycling condition was set. Before the commencement of the studies, all the rats were fasted overnight with free access to water for 12 h. Fifteen animals were randomly assigned to three groups (n = 5/group) and intragastrically administrated with PAL, PAL-RES, and PAL-ORC in 0.5% (w/v) aqueous sodium methyl cellulose solution, respectively. A dose equivalent to 5 mg/kg body weight of PAL was used to conduct the evaluation. After the oral administration, blood collections were performed at designated time points (0.5, 1, 2, 4, 6, 8, 12, 24 and 48 h) using centrifuge tubes containing EDTA-K2. Next, the plasma samples were obtained from the whole blood by centrifuging at 4000 rpm for 10 min. The plasma samples were prepared for HPLC analysis by washing with 300 μL methanol, and the PAL concentration was measured using the same method as described in “2.10. Intrinsic dissolution rate (IDR) experiments”. Moreover, the PK parameters were calculated by Phoenix WinNonlin 6.0 pharmacokinetic software package (Certara, Princeton, NJ, USA).

Consider `Oc1cccc(O)c1` [RES, Resorcinol], for which the concentration for half-maximal inhibition (IC50) at 48 h in data set [1] was more than 100 µM.

With `CC(=O)c1c(C)c2cnc(Nc3ccc(N4CCNCC4)cn3)nc2n(C2CCCC2)c1=O.Oc1cccc(O)c1` [PAL-RES], in the data set with HUVEC, the IC50 worked out at 4.02 ± 0.07 µM. Also, the “Change of dissolution rate compared with PAL” value in data set [2] (acetate buffer pH 4.5) was “only a slight increase in dissolution rate”. In data set [2], the “Dissolution rate compared with PAL” value came out at 1.2 times and the “Increase of dissolution rate compared with PAL” value is recorded as “three times”. In addition, the “Physical stability (PXRD, phase transformation)” value in data set [3] is “physically stable”. Further, in data set [4], the Equilibrium dissolution came out at 60.22%. Moreover, the “Time physically stable under stress testing conditions” value in data set [5] is given as “at least 10 days”.

For the compound `O=C1CCc2ccc(OCCCCN3CCN(c4cccc(Cl)c4Cl)CC3)cc2N1` [ARI, aripiprazole], in data set [6], the Maximum aripiprazole concentration was 1.6 mg/L.

For the compound `CC(=O)c1c(C)c2cnc(Nc3ccc(N4CCNCC4)cn3)nc2n(C2CCCC2)c1=O.Cc1cc(O)cc(O)c1` [PAL-ORC], the IC50 in the data set with HUVEC amounted to 0.85 ± 0.13 µM. Besides, the “Intrinsic dissolution rate (slope of fitted IDR line)” value in data set [2] (acetate buffer pH 4.5, 37 °C, 100 rpm) was 0.53 mg/min/cm^2. In data set [2], the “Dissolution rate compared with PAL” value is recorded as 1.2 times and the “Increase of dissolution rate compared with PAL” value is given as “two times”. Also, in data set [3], the “Physical stability (PXRD, phase transformation)” value is reported as “physically stable”. Moreover, in data set [4], the Equilibrium dissolution was determined as 49.93%. Moreover, the “Time physically stable under stress testing conditions” value in data set [5] is “at least 10 days”.

Turning to `Cc1cc(O)cc(O)c1` [ORC, orcinol], the IC50 at 48 h in data set [1] was more than 100 µM.

For the compound `CC(=O)c1c(C)c2cnc(Nc3ccc(N4CCNCC4)cn3)nc2n(C2CCCC2)c1=O` [PAL, Palbociclib], in data set [1], the IC50 at 48 h was 2.4 ± 0.07 µM. Also, the “Powder dissolution under acidic conditions” value in data set [4] (pH 1.0 or 4.5) was “dissolves completely at pH 1.0 or 4.5 within five minutes”. The Equilibrium dissolution in data set [4] is recorded as 20.09%. Further, the Vd in data set [7] was 20.48 L/kg. In addition, in data set [7] (male, Sprague-Dawley, rat), the AUC(0-t) came to 2620 ng·h/mL, the Cmax was found to be 347 ng/mL, the MRT is 5.36 h and the Tmax was 4 h. For the same compound, in data set [7] (male, Sprague-Dawley, rat), the half-life is 19.9 h.

These data come from PMC8781472, “Two Novel Palbociclib-Resorcinol and Palbociclib-Orcinol Cocrystals with Enhanced Solubility and Dissolution Rate” (Pharmaceutics, 2021).
